In patent publication US20240165097A1, “PHARMACEUTICAL COMPOSITION FOR THE TREATMENT OF ALZHEIMER'S DISEASE OR DEMENTIA” (Heptares Therapeutics Limited, priority 2021, published 2024):
Entries after “also recorded” stand apart in the source; their conditions may differ. Read-outs that look alike come from different tables or passages of the source.

Experiment: Example D: HTL0018318 plasma pharmacokinetics
Type: in vivo, human
Description: Selected plasma pharmacokinetics (PK) parameters for HTL0018318 were estimated during the period over which PD assessments were made. Details of assessment times for all endpoints are described below.
Pharmacokinetics (PK) were evaluated via blood samples, for determination of HTL0018318 concentrations in plasma. Blood samples were collected during clinic visits before morning dose administration and 1, 2, and 4 hours after dose administration, on Day 1, Day 6, Day 11, Day 16, Day 28, and Day 35 (follow-up visit). Bioanalysis used a fully validated method and all samples were analysed within the established period of storage stability. Validated Phoenix® WinNonlin® Version 6.4 was used to derive PK parameters.
All safety analyses used the safety set (SAF; randomised dose). The SAF (randomised dose) included all randomised patients who received at least one dose of the study drug; treatment group assignment was based on the initial randomised dose. All efficacy analyses were considered exploratory and used the full analysis set (FAS). The FAS included all randomised patients with at least one post-baseline efficacy measurement; treatment group assignment was based on the initial randomised dose. All summaries and analyses of PK data used the pharmacokinetic set (PKS). The PKS included all randomised patients with valid PK assessments; treatment group assignment was based on actual dose received.

Question: For `CCOC(=O)N1C2CCC1CC(N1CCC3(CC1)CNC(=O)C3)C2` (stereo not drawn) [HTL0018318, ethyl 3-(3-oxo-2,8-diazaspiro[4.5]dec-8-yl)-8-azabicyclo[3.2.1]octane-8-carboxylate], which “Ctrough, arithmetic mean ± SD” value (5 mg, visit day 6) is on record?
Answer: 14.2 ± 12.1 ng/mL

Question: And the “Ctrough, arithmetic mean ± SD” value (5 mg, visit day 11)?
Answer: 13.7 ± 10.3 ng/mL

Question: And the “Ctrough, arithmetic mean ± SD” value (10 mg, visit day 6)?
Answer: 7.55 ± 4.72 ng/mL

Question: What about the “Ctrough, mean” value (10 mg, visit day 11, n = 2) of the same compound?
Answer: 5.47 ng/mL

Question: And the “Ctrough, arithmetic mean ± SD” value (15 mg, visit day 6)?
Answer: 19.0 ± 25.7 ng/mL

Question: And the “Ctrough, arithmetic mean ± SD” value (15 mg, visit day 11)?
Answer: 27.9 ± 40.7 ng/mL

Question: And the “Cmax, arithmetic mean ± SD” value (25 mg, visit day 28)?
Answer: 223 ± 134 ng/mL

Question: What about the “dose-exposure proportionality (Cmax, AUC0-4 h)” value (5-25 mg) of the same compound?
Answer: Dose-exposure proportionality was confirmed; also recorded: increased proportionally across 5-25 mg doses

Question: And the “steady-state achieved with daily dosing” value (any given dose level)?
Answer: 5 days

Question: What about the AUC(0-t) (human, plasma, 5 mg, visit day 1, read-out: AUC0-4 h, arithmetic mean ± SD) of the same compound?
Answer: 113 ± 57.6 ng·h/mL

Question: What about the Cmax (human, plasma, 5 mg, visit day 1, read-out: Cmax, arithmetic mean ± SD) of the same compound?
Answer: 40.3 ± 24.4 ng/mL

Question: And the AUC(0-t) (human, plasma, 5 mg, visit day 6, read-out: AUC0-4 h, arithmetic mean ± SD)?
Answer: 146 ± 53.1 ng·h/mL

Question: What about the Cmax (human, plasma, 5 mg, visit day 6, read-out: Cmax, arithmetic mean ± SD) of the same compound?
Answer: 50.5 ± 15.6 ng/mL

Question: What about the AUC(0-t) (human, plasma, 5 mg, visit day 11, read-out: AUC0-4 h, arithmetic mean ± SD) of the same compound?
Answer: 149 ± 70.6 ng·h/mL

Question: And the Cmax (human, plasma, 5 mg, visit day 11, read-out: Cmax, arithmetic mean ± SD)?
Answer: 48.3 ± 19.6 ng/mL

Question: What about the AUC(0-t) (human, plasma, 5 mg, visit day 16, read-out: AUC0-4 h, arithmetic mean ± SD) of the same compound?
Answer: 132 ± 56.2 ng·h/mL

Question: And the Cmax (human, plasma, 5 mg, visit day 16, read-out: Cmax, arithmetic mean ± SD)?
Answer: 46.4 ± 18.9 ng/mL

Question: And the AUC(0-t) (human, plasma, 5 mg, visit day 28, read-out: AUC0-4 h, arithmetic mean ± SD)?
Answer: 144 ng·h/mL

Question: And the Cmax (human, plasma, 5 mg, visit day 28, read-out: Cmax, arithmetic mean ± SD)?
Answer: 51.8 ng/mL

Question: What about the AUC(0-t) (human, plasma, 10 mg, visit day 6, read-out: AUC0-4 h, arithmetic mean ± SD) of the same compound?
Answer: 244 ± 88 ng·h/mL

Question: What about the Cmax (human, plasma, 10 mg, visit day 6, read-out: Cmax, arithmetic mean ± SD) of the same compound?
Answer: 82.4 ± 31.6 ng/mL

Question: What about the AUC(0-t) (human, plasma, 10 mg, visit day 11, n = 2, read-out: AUC0-4 h, mean [minimum, maximum]) of the same compound?
Answer: 231 ng·h/mL

Question: What about the Cmax (human, plasma, 10 mg, visit day 11, read-out: Cmax, arithmetic mean ± SD) of the same compound?
Answer: 69.7 ± 33.6 ng/mL

Question: And the AUC(0-t) (human, plasma, 10 mg, visit day 16, n = 1, read-out: AUC0-4 h)?
Answer: 302 ng·h/mL

Question: What about the Cmax (human, plasma, 10 mg, visit day 16, n = 1, read-out: Cmax) of the same compound?
Answer: 87.5 ng/mL

Question: What about the AUC(0-t) (human, plasma, 10 mg, visit day 28, n = 1, read-out: AUC0-4 h) of the same compound?
Answer: 222 ng·h/mL

Question: And the Cmax (human, plasma, 10 mg, visit day 28, n = 1, read-out: Cmax)?
Answer: 89 ng/mL

Question: What about the AUC(0-t) (human, plasma, 15 mg, visit day 6, read-out: AUC0-4 h, arithmetic mean ± SD) of the same compound?
Answer: 315 ± 163 ng·h/mL

Question: And the Cmax (human, plasma, 15 mg, visit day 6, read-out: Cmax, arithmetic mean ± SD)?
Answer: 106 ± 54 ng/mL

Question: What about the AUC(0-t) (human, plasma, 15 mg, visit day 11, read-out: AUC0-4 h, arithmetic mean ± SD) of the same compound?
Answer: 379 ± 77.5 ng·h/mL

Question: What about the Cmax (human, plasma, 15 mg, visit day 11, read-out: Cmax, arithmetic mean ± SD) of the same compound?
Answer: 126 ± 29.3 ng/mL

Question: And the AUC(0-t) (human, plasma, 15 mg, visit day 16, read-out: AUC0-4 h, arithmetic mean ± SD)?
Answer: 422 ± 94.5 ng·h/mL

Question: What about the Cmax (human, plasma, 15 mg, visit day 16, read-out: Cmax, arithmetic mean ± SD) of the same compound?
Answer: 136 ± 31.4 ng/mL

Question: What about the AUC(0-t) (human, plasma, 15 mg, visit day 28, read-out: AUC0-4 h, arithmetic mean ± SD) of the same compound?
Answer: 368 ng·h/mL

Question: And the Cmax (human, plasma, 15 mg, visit day 28, read-out: Cmax, arithmetic mean ± SD)?
Answer: 123 ng/mL

Question: What about the AUC(0-t) (human, plasma, 25 mg, visit day 11, read-out: AUC0-4 h, arithmetic mean ± SD) of the same compound?
Answer: 650 ± 302 ng·h/mL

Question: And the Cmax (human, plasma, 25 mg, visit day 11, read-out: Cmax, arithmetic mean ± SD)?
Answer: 222 ± 102 ng/mL

Question: What about the AUC(0-t) (human, plasma, 25 mg, visit day 16, read-out: AUC0-4 h, arithmetic mean ± SD) of the same compound?
Answer: 728 ± 359 ng·h/mL

Question: And the Cmax (human, plasma, 25 mg, visit day 16, read-out: Cmax, arithmetic mean ± SD)?
Answer: 243 ± 108 ng/mL

Question: What about the AUC(0-t) (human, plasma, 25 mg, visit day 28, read-out: AUC0-4 h, arithmetic mean ± SD) of the same compound?
Answer: 668 ng·h/mL

Question: And the Cmax (human, plasma, 25 mg, visit day 28, read-out: Cmax, arithmetic mean ± SD)?
Answer: 224 ng/mL

Question: And the concentration at 16 day (human, plasma, 5 mg, visit day 16, read-out: Ctrough, arithmetic mean ± SD)?
Answer: 14.1 ± 10.8 ng/mL

Question: And the concentration at 28 day (human, plasma, 5 mg, visit day 28, read-out: Ctrough, arithmetic mean ± SD)?
Answer: 14.2 ± 12.3 ng/mL

Question: And the concentration at 16 day (human, plasma, 10 mg, visit day 16, n = 1, read-out: Ctrough)?
Answer: 8.25 ng/mL

Question: What about the concentration at 28 day (human, plasma, 10 mg, visit day 28, n = 1, read-out: Ctrough) of the same compound?
Answer: 6.41 ng/mL

Question: What about the concentration at 16 day (human, plasma, 15 mg, visit day 16, read-out: Ctrough, arithmetic mean ± SD) of the same compound?
Answer: 29.4 ± 38.5 ng/mL

Question: And the concentration at 28 day (human, plasma, 15 mg, visit day 28, read-out: Ctrough, arithmetic mean ± SD)?
Answer: 23.2 ± 16 ng/mL

Question: What about the concentration at 11 day (human, plasma, 25 mg, visit day 11, read-out: Ctrough, arithmetic mean ± SD) of the same compound?
Answer: 22.2 ± 21.8 ng/mL

Question: And the concentration at 16 day (human, plasma, 25 mg, visit day 16, read-out: Ctrough, arithmetic mean ± SD)?
Answer: 66.7 ± 80.4 ng/mL

Question: What about the concentration at 28 day (human, plasma, 25 mg, visit day 28, read-out: Ctrough, arithmetic mean ± SD) of the same compound?
Answer: 40.3 ± 30.6 ng/mL

Question: And the Tmax (human, plasma, all doses, read-out: Tmax (median))?
Answer: 1 to 2 h
